Results taken from US12583868B2, “JAK inhibitors and methods for synthesizing and using thereof” (GALDERMA HOLDING SA, priority 2020, dated 2026).
Where two headings read alike, the source gives them in different places.

Tests used:
[1] = biological target: T1, JAK3 (Homo sapiens, UniProt P52333); assay: In vitro enzyme assay (Cisbio kinase assay), JAK3; format: biochemical; conditions: ATP 300 μM; read-out: Enzymatic assay: JAK3
T1 construct: purchased Life Technologies PV3855
T1 sequence (P52333 1-1124): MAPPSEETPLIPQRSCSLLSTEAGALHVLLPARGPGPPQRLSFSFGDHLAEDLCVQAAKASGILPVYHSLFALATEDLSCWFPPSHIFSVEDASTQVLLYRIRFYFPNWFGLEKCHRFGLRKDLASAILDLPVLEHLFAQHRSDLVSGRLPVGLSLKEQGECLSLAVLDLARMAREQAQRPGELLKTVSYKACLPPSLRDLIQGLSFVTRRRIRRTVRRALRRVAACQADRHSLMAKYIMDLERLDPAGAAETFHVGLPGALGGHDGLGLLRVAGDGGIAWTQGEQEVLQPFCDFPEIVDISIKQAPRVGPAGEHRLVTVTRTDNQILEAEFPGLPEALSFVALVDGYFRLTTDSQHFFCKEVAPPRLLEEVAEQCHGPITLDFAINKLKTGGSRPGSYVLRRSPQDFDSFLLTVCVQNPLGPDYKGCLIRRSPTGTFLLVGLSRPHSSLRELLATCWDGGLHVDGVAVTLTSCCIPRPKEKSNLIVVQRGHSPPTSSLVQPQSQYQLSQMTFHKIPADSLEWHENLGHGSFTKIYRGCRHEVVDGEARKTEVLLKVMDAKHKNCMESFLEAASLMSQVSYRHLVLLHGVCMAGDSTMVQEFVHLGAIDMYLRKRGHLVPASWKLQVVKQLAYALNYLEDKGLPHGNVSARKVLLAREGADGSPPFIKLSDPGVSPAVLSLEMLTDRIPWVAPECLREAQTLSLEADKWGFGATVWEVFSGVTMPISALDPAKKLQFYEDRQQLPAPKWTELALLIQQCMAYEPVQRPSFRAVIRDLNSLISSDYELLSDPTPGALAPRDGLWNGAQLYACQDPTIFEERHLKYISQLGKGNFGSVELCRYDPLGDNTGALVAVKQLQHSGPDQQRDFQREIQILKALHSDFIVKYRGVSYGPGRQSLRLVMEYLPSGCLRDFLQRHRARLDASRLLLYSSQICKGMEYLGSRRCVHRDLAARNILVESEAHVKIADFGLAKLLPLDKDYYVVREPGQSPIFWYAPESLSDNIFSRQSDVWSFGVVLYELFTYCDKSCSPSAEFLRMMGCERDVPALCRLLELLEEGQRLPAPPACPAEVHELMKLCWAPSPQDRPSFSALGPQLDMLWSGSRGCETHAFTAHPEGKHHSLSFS

[2] = test system: IL-6 induced pSTAT3 in TF-1 cells; assay: In vitro cellular pSTAT3 assay, IL-6 stimulated TF-1 cells; format: cell-based; conditions: Homo sapiens
Procedure: . The flasks were incubated overnight at 37° C., 5% CO2 then seeded in 96 well plates (TPP) at 150000 cells/well in 25 μL. Cells were treated with 5 IL/well of serially diluted compounds in DMSO (final DMSO concentration of 0.1%) and incubated for 30 min at 37° C. IL-6 (6 IL/well, 100 ng/ml as a final concentration in Opti-MEM, Thermofisher, PHC0066) was added to the cell plates and followed by a 30-min incubation at 37° C. Next, cells were lysed by adding 12 μl/well of 4× supplemented lysis buffer, incubated at 4° C. for 30 min under agitation. The samples were processed for the pSTAT3 detection as described by the manufacturer (MSD) with 25 μl of non-diluted cell lysates tested. Compounds were tested in simplicates over 10 three-step dilutions in order to determine their IC50 values.

[3] = test system: IL6; assay: hWB assay, IL6; format: cell-based, h
[4] = pKa; format: physicochemical
[5] = Kinetic aq sol; format: physicochemical
[6] = Protein binding analysis (RED), rat plasma; format: in vitro ADME, male Wistar Han rat; conditions: 5 μM
Procedure: The protein binding was assessed in plasma of Human, male balb-c mice, male Wistar Han rat, male Göttingen minipig by rapid equilibrium dialysis (RED) devices. After the plasma and buffer phosphate 50 mM pH7.4 were equilibrated at 37° C., the compound was added to plasma to reach a final concentration of 5 μM. An aliquot of plasma was withdrawn immediately. Equilibration under mild agitation was continued for 4 h. The plasma and buffer were sampled and samples were quenched with 4 volumes of acetonitrile and centrifuged. Supernatant was quantified in HPLC/MS/MS to calculate the recovery and the percentage of compound dissolved in the buffer (unbound) and bound to plasma proteins.

[7] = Intrinsic clearance in hepatocytes, human; format: in vitro ADME; conditions: 2.5 μM
Procedure: The intrinsic clearance was assessed in cryopreserved Hepatocytes obtained by Human livers donors of mix gender pooled together, male balb-c mouse, male Wistar Han rats and male Göttingen minipig, by looking at the parent compound disappearance. The incubations were performed using a final concentration of viable cells of 1 million/ml (viability above 70%) and test item of 2.5 μM. Incubations were followed up to 2 h. Aliquotes were withdrawn at different time points and reaction quenched with acetonitrile. After centrifugation the supernatant was analyzed by HPLC/MS to quantify the remaining amount of parent in comparison with time 0. The clearance was calculated by fitting the log of the percentage remaining with Graphpad Prism ver.7.

[8] = In vivo pharmacokinetic analysis in rat (iv); set-up: species or system male Wistar Han rat; conditions: iv 1 mg/kg
Procedure: One male Wistar Han rat. Compound was administered intravenously to fed animal at a target dose of 1 mg/kg, dose volume: 2 mL/kg, in DMSO/hydroxypropyl-beta-cyclodextrin 20% in phosphate buffer 60 mM pH 7 (5:95). Blood samples were collected at various time points. Blood samples were then assayed using a method based upon protein precipitation with acetonitrile followed by LC/MS/MS analysis. Non-compartmental methods were used for pharmacokinetic analysis of blood concentration versus time data

[9] = Systemic level in PD/IL6 mouse topical dose response; format: in vivo, BALB/c ByJ Rj mice; conditions: topical 10 mM
Procedure: Skin samples were harvested 15 min.

[10] = test system: 44 targets; format: binding
Procedure: An in vitro pharmacology assay was conducted to assess the capability of the compounds to interact with different pharmacological targets when tested at 10 μM in different binding and enzyme/uptake assays. The included targets are indicative of potential effects in major organs and drug-drug interactions.
Compound binding was calculated as a % inhibition of the binding of a radioactively labelled ligand specific for each target. […] […].

O=S(=O)(N[C@H]1C[C@@H](N2CCOc3cnc4[nH]ccc4c32)C1)C1CN(C2CC2)C1 [Compound E, 1-Cyclopropyl-N-((cis)-3-(2,3-dihydropyrrolo[3′,2′:5,6]pyrido[3,4-b][1,4]oxazin-1(7H)-yl)cyclobutyl)azetidine-3-sulfonamide]
IC50 [1]: > 10000 nM
IC50 ([2]; TF-1, cellular assay IL6, read-out: Free IC50): 43 nM
IC50 ([2]; TF-1 cells, IL-6 100 ng/ml, read-out: Cellular Assay: IC50 IL6): 9.9 nM
IC50 [3]: 1600 nM
pKa [4]: 6.1
Kinetic aq sol [5]: 225/ND/TBD microM
rFU [6]: 16%
Intr. Clear. h heps [7]: 6.5 microL/min/10 6 cells
iv PK rat: ER [8]: 67%
clearance ([8]; male, Wistar Han, whole blood, read-out: iv PK rat: Cl): 52 mL/min/kg
Vd ([8]; male, Wistar Han, whole blood, read-out: iv PK rat: Vd): 1.8 L/kg
half-life ([8]; male, Wistar Han, whole blood, read-out: iv PK rat: t½ (converted)): 23.4 min
PD/IL6 mouse top DR 0.01-10 mM (PG/Acetone/Transcutol): Systemic level @10 mM - 2 hrs [9]: 185 nM
Safety panel (Cerep): 44 targets % inh @10 microM Nb of targets > 50% inh [10]: 2/44
Safety panel (Cerep): targets > 50% inh ([10]; 10 μM): (H2 (antago)-alpha2A (antago))
